This is an account of results in ChEMBL document CHEMBL1157293, “Sylviside, a diterpene glucoside derivative from Gnaphalium sylvaticum” (J Nat Prod, 2006).

The subject of test [1] is HeLa. The test can be described thus: Cytotoxicity against MDR1-G185 overexpressing human HeLa cells by MTT assay. The test is classed as functional, cell-based.
Test [2] deals with HeLa. Nature of the test: Cytotoxicity against wild type human HeLa cells by MTT assay. It counts as functional, cell-based. A general note: Tetrazolium dyes change colour on reduction, which living cells bring about.

Regarding `C=C1[C@@H]2CC[C@H]3[C@]4(C)C[C@H](O[C@@H]5O[C@H](CO)[C@@H](O)[C@H](O)[C@H]5OC(=O)/C(C)=C\C)CC(C(=O)O)(C(=O)O)[C@H]4CC[C@]3(C2)[C@H]1O` [SYLVISIDE], the values for the IC50 in the test with HeLa [1] and in the test with HeLa [2] were 1700 µM and 325 µM, respectively.

Broadly, the IC50 is the concentration that gives 50% inhibition. Low readings indicate inhibition by little substance, high ones a need for much substance.
